In article PMC6591457, “Staphylococcus aureus Uses the Bacilliredoxin (BrxAB)/Bacillithiol Disulfide Reductase (YpdA) Redox Pathway to Defend Against Oxidative Stress Under Infections” (Frontiers in Microbiology, 2019):

Key:
YpdA [1] = molecular target: T1, YpdA (Staphylococcus aureus, UniProt A0A0H2WWS2); experiment: NADPH consumption at […] nm; format: biochemical; conditions: 12.5 uM YpdA, 40 uM BSSB, 500 uM NADPH, 20 mM Tris, 1.25 mM EDTA, pH 8.0
T1 construct: gene SACOL1520; full-length, His6-tagged, pET11b, E. coli BL21(DE3) pLysS, Ni-NTA purified, prereduced with DTT

YpdA [2] = molecular target: T1, YpdA; experiment: UV-visible spectrum of purified enzyme; format: binding; conditions: co-purified flavin, absorbance peaks at 375 and 450 nm

T1 sequence (A0A0H2WWS2 entry or part of it): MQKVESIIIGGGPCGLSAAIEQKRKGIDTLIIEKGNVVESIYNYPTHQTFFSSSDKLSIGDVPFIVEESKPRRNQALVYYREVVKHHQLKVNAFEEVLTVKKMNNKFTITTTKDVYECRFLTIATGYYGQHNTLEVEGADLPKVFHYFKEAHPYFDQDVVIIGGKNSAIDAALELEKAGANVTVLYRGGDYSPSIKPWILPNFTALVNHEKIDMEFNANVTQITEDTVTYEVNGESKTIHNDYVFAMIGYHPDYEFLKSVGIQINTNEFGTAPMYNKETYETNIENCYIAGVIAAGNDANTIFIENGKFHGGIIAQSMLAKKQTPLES

Row | Structure (SMILES) | NADPH consumption at 340 nm (YpdA [1]) | UV-visible spectrum of purified enzyme (YpdA [2])
1 | NC(=O)C1=CN([C@@H]2O[C@H](COP(=O)(O)OP(=O)(O)OC[C@H]3O[C@@H](n4cnc5c(N)ncnc54)[C@H](OP(=O)(O)O)[C@@H]3O)[C@@H](O)[C@H]2O)C=CC1 [NADPH] | Purified YpdA is able to reduce BSSB back to BSH with electrons from NADPH | 
2 | N[C@@H](CSSC[C@H](N)C(=O)N[C@H]1[C@@H](O[C@@H](CC(=O)O)C(=O)O)O[C@H](CO)[C@@H](O)[C@@H]1O)C(=O)N[C@H]1[C@@H](O[C@@H](CC(=O)O)C(=O)O)O[C@H](CO)[C@@H](O)[C@@H]1O [BSSB] | Incubation of YpdA protein with BSSB resulted in significant and fast consumption of NADPH | 
3 | Cc1cc2nc3c(=O)[nH]c(=O)nc-3n(C[C@H](O)[C@H](O)[C@H](O)COP(=O)(O)OP(=O)(O)OC[C@H]3O[C@@H](n4cnc5c(N)ncnc54)[C@H](O)[C@@H]3O)c2cc1C [FAD] |  | UV-visible spectrum revealed the presence of the FAD co-factor
